Patent publication US20120142645A1, “NEUROACTIVE STEROID COMPOSITIONS AND METHODS OF USE FOR LOWERING CHOLESTEROL” (priority 2009, published 2012)

System: patients with schizophrenia or schizoaffective disorder
Assay: BACS cognitive battery; same 8-week adjunctive pregnenolone trial
Assay type: in vivo, human
Conditions: for BACS Composite Z-score / BACS Digit Sequencing raw score / BACS Symbol Coding raw score / BACS Token Motor raw score / BACS Tower of London raw score / BACS Verbal Fluency raw score / BACS Verbal Memory raw score: mean, n = 9; for BACS Composite, difference PG vs placebo in Z-score change: not statistically significant (p=0.22)
Procedure: Study Design and Subjects. Disclosed herein is a placebo-controlled, double-blind, parallel group, randomized trial of adjunctive pregnenolone for the treatment of cognitive and negative symptoms in patients with schizophrenia or schizoaffective disorder. […] Patients received a total of 6 study visits, which took place every two weeks. […] The trial was conducted at a single site, the Durham Veterans Affairs Medical Center in Durham, N.C. The protocol was approved by the local institutional review board and conducted under FDA Investigational New Drug (IND) #71,768. The ClinicalTrials.gov number for this study is NCT00560937.
Cognitive symptoms were assessed by the Brief Assessment of Cognition in Schizophrenia (BAGS; Keefe et al., 2004; Keefe et al., 2008), and the MATRICS Consensus Cognitive Battery (Nuechterlein & Green, 2006; Nuechterlein et al., 2008). It is believed that no clinical trial to date has reported both of these cognitive assessments within the same study. The BAGS and MATRICS batteries were administered two weeks following the screening visit (following the completion of the two-week placebo lead-in phase at Visit 2), and at two 4-week intervals thereafter (at midpoint following randomization at Visit 4 and at the final visit (Visit 6).
The BAGS cognitive battery utilizes the following assessments in the respective targeted domains (Keefe et al., 2004; Keefe et al., 2008): list learning (verbal memory), digit sequencing task (working memory), token motor task (motor speed), verbal fluency (processing speed), symbol coding (attention and processing speed), and the Tower of London test (executive functions/reasoning and problem solving). The MATRICS cognitive battery utilizes the following assessments: Trail Making Test, Part A and the symbol coding subtest of the BAGS (both assess speed of processing), the Hopkins Verbal Learning Test-Revised, immediate recall (three learning trials only) [verbal learning], the Wechsler Memory Scale, 3rd ed., spatial span subtest (working memory, nonverbal), the Letter-Number Span test (working memory, verbal), the Neuropsychological Assessment Battery, mazes subtest (reasoning and problem solving), the Brief Visuospatial Memory Test-Revised (visual learning), the Category Fluency Test (animal naming) [speed of processing], the Mayer-Salovey-Caruso Emotional Intelligence Test, managing emotions branch (social cognition), and the Continuous Performance Test, Identical Pairs version (attention/vigilance) Of note, the symbol coding subtest of the BAGS was administered only once per visit at Visits 2, 4, and 6, although it is a component of both the BAGS and MATRICS cognitive batteries, in order to avoid potentially confounding practice effects.

[1] = Week 0 to Week 8, listed as pregnenolone

In the case of `CC(=O)[C@H]1CC[C@H]2[C@@H]3CC=C4C[C@@H](O)CC[C@]4(C)[C@H]3CC[C@]12C` [PG, pregnenolone], the “BACS Composite Z-score” value (Week 0 (baseline)) is reported as −1.54, the “BACS Digit Sequencing raw score” value (Week 0 (baseline)) is reported as 15.78 and the “BACS Symbol Coding raw score” value (Week 0 (baseline)) is reported as 36.89. For the same compound, the “BACS Token Motor raw score” value (Week 0 (baseline)) was 46.44, the “BACS Tower of London raw score” value (Week 0 (baseline)) was 13.22 and the “BACS Verbal Fluency raw score” value (Week 0 (baseline)) was 45.78. The “BACS Verbal Memory raw score” value (Week 0 (baseline)) was 36.78, the “BACS Composite, change in Z-score” value (Week 0 to Week 8) was 0.60 and the “BACS Digit Sequencing, change in Z-score” value (Week 0 to Week 8) was 0.50. For the same compound, the “BACS Digit Sequencing, difference PG vs placebo in Z-score change” value (Week 0 to Week 8) was 0.25 ± 0.29, the “BACS Symbol Coding, change in Z-score” value (Week 0 to Week 8) was 0.11 and the “BACS Symbol Coding, difference PG vs placebo in Z-score change” value (Week 0 to Week 8) was −0.16 ± 0.24. For the same compound, the “BACS Token Motor, change in Z-score” value (Week 0 to Week 8) was 0.40, the “BACS Token Motor, difference PG vs placebo in Z-score change” value (Week 0 to Week 8) was 0.42 ± 0.66 and the “BACS Tower of London, change in Z-score” value (Week 0 to Week 8) was 0.82±. The “BACS Tower of London, difference PG vs placebo in Z-score change” value (Week 0 to Week 8) was 0.61 ± 0.80, the “BACS Verbal Fluency, change in Z-score” value (Week 0 to Week 8) was −0.05 and the “BACS Verbal Fluency, difference PG vs placebo in Z-score change” value (Week 0 to Week 8) was −0.06 ± 0.32. The “BACS Verbal Memory, change in Z-score” value (Week 0 to Week 8) was 0.83, the “BACS Verbal Memory, difference PG vs placebo in Z-score change” value (Week 0 to Week 8) was 0.61 ± 0.38 and the “BACS Composite, change in Z-score” value [1] was 0.60±0.78. For the same compound, the “BACS Digit Sequencing, difference PG vs placebo in Z-score change” value [1] was 0.25, the “BACS Token Motor, difference PG vs placebo in Z-score change” value [1] was 0.42 and the “BACS Tower of London, difference PG vs placebo in Z-score change” value [1] was 0.61. The “BACS Verbal Memory, difference PG vs placebo in Z-score change” value [1] was 0.61, the “BACS Composite, difference PG vs placebo in Z-score change” value (Week 0 to Week 8) was 0.38 ± 0.30 and the “BACS Composite, difference PG vs placebo in Z-score change” value [1] was “approximately 0.4”. The “BACS Composite Z-score” value (Week 4) was −1.04, the “BACS Digit Sequencing raw score” value (Week 4) was 17.22 and the “BACS Symbol Coding raw score” value (Week 4) was 44.78. For the same compound, the “BACS Token Motor raw score” value (Week 4) was 55.56, the “BACS Tower of London raw score” value (Week 4) was 15.22 and the “BACS Verbal Fluency raw score” value (Week 4) was 45.11. The “BACS Verbal Memory raw score” value (Week 4) was 39.00, the “BACS Composite Z-score” value (Week 8) was −0.93 and the “BACS Digit Sequencing raw score” value (Week 8) was 18.44. For the same compound, the “BACS Symbol Coding raw score” value (Week 8) was 38.67, the “BACS Token Motor raw score” value (Week 8) was 52.22 and the “BACS Tower of London raw score” value (Week 8) was 16.22. For the same compound, the “BACS Verbal Fluency raw score” value (Week 8) was 45.22 and the “BACS Verbal Memory raw score” value (Week 8) was 43.78.
